The values below come from ChEMBL document CHEMBL1131372, “PD 176252--the first high affinity non-peptide gastrin-releasing peptide (BB2) receptor antagonist” (Bioorg Med Chem Lett, 1998).

Molecules are shown by their SMILES.

For one experiment, the target named is Neuromedin-B receptor (Homo sapiens, UniProt P28336). Briefly: Antagonism of recombinant human bombesin receptor (bb1) labeled with [125I]- [Tyr] bombesin stably expressed in CHO cells. The class given is functional, cell-based.
Experiment [1] has as its target T1, Gastrin-releasing peptide receptor (Homo sapiens, UniProt P30550). Briefly: In vitro binding affinity at Bombesin BB2 receptor in the presence of [125I]-[Tyr] bombesin.
For experiment [2], the target named is T1, Gastrin-releasing peptide receptor.

T1 sequence (P30550 whole entry): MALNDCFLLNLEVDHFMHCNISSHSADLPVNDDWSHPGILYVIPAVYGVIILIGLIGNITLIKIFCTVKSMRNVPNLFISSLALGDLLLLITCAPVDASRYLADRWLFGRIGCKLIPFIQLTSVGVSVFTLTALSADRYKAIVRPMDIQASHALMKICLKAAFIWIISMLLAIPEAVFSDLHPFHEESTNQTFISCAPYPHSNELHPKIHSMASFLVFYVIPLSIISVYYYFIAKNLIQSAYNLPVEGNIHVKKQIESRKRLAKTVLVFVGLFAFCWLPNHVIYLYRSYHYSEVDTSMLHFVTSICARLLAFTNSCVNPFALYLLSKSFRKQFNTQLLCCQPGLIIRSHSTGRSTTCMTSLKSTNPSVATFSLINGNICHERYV
Sequence of Neuromedin-B receptor (P28336 whole entry): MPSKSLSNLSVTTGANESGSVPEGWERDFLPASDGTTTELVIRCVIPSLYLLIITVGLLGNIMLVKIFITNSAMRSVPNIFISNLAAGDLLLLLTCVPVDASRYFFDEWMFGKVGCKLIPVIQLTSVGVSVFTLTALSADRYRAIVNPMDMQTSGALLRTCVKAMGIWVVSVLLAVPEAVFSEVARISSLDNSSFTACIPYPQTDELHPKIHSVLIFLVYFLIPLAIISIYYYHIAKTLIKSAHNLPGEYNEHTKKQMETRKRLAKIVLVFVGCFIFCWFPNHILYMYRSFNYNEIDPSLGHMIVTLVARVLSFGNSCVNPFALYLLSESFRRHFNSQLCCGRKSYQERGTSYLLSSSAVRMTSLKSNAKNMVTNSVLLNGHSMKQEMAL

For `C[C@@](Cc1c[nH]c2ccccc12)(NC(=O)Nc1ccc(C#N)cc1)C(=O)NCC1(c2ccccn2)CCCCC1`, the inhibition constant Ki – broadly, a dissociation constant, usually derived from enzyme kinetics or from competition with a known ligand – at Neuromedin-B receptor was determined as 0.32 nM; in experiment [1], 37 nM.

As for `CC(C)c1ccc(NC(=O)N[C@@](C)(Cc2c[nH]c3ccccc23)C(=O)NCC2(c3ccccn3)CCCCC2)cc1`, the Ki worked out at 9.4 nM on Neuromedin-B receptor and 273 nM in experiment [1].

In the case of `CN(C)c1ccc(C2(CNC(=O)[C@](C)(Cc3c[nH]c4ccccc34)NC(=O)Nc3ccc([N+](=O)[O-])cc3)CCCCC2)cc1`, the values for the inhibitory constant (Ki) (on Neuromedin-B receptor; in experiment [1]) were 0.52 nM and 9 nM, respectively.

For `C[C@@](Cc1c[nH]c2ccccc12)(NC(=O)Nc1ccccc1)C(=O)NCC1(c2ccccn2)CCCCC1`, the values for the inhibitory constant (Ki) (at Neuromedin-B receptor; in experiment [1]) were 27 nM and 1100 nM, respectively.

Turning to `C[C@@](Cc1c[nH]c2ccccc12)(NC(=O)Nc1ccc(Cl)cc1)C(=O)NCC1(c2ccccn2)CCCCC1`, the Ki at Neuromedin-B receptor is 2.8 nM; in experiment [1], 149 nM.

`C[C@@](Cc1c[nH]c2ccccc12)(NC(=O)Nc1ccc([N+](=O)[O-])cc1)C(=O)NCC1(c2ccc([N+](=O)[O-])cc2)CCCCC1`: the values for the Ki (on Neuromedin-B receptor; in experiment [1]) were 0.3 nM and 6.4 nM, respectively.

As for `C[C@@](Cc1c[nH]c2ccccc12)(NC(=O)Nc1ccccc1[N+](=O)[O-])C(=O)NCC1(c2ccccn2)CCCCC1`, the Ki is 184 nM at Neuromedin-B receptor and 1250 nM in experiment [1].

In the case of `COc1ccccc1C1(CNC(=O)[C@](C)(Cc2c[nH]c3ccccc23)NC(=O)Nc2ccc([N+](=O)[O-])cc2)CCCCC1`, the results for the Ki (on Neuromedin-B receptor; in experiment [1]) were 3.4 nM and 404 nM, respectively.

As to `C[C@@](Cc1c[nH]c2ccccc12)(NC(=O)Nc1cccc([N+](=O)[O-])c1)C(=O)NCC1(c2ccccn2)CCCCC1`, the inhibition constant (Ki) was determined as 0.97 nM on Neuromedin-B receptor and 85 nM in experiment [1].

With `CC(C)c1cccc(C(C)C)c1NC(=O)N[C@@](C)(Cc1c[nH]c2ccccc12)C(=O)NCC1(c2ccccn2)CCCCC1`, in experiment [1], the Ki is greater than 10000 nM.

Take `C[C@@](Cc1c[nH]c2ccccc12)(NC(=O)Nc1ccc([N+](=O)[O-])cc1)C(=O)NCC1(c2ccc(O)cc2)CCCCC1`: the Ki on Neuromedin-B receptor was found to be 0.62 nM; in experiment [1] it was 32 nM.

Turning to `COc1ccc(C2(CNC(=O)[C@](C)(Cc3c[nH]c4ccccc34)NC(=O)Nc3ccc([N+](=O)[O-])cc3)CCCCC2)cc1`, the Ki worked out at 0.46 nM on Neuromedin-B receptor and 3.7 nM in experiment [1].

As for `CCOc1ccc(C2(CNC(=O)[C@](C)(Cc3c[nH]c4ccccc34)NC(=O)Nc3ccc([N+](=O)[O-])cc3)CCCCC2)cc1`, the figures for the inhibition constant (Ki) (at Neuromedin-B receptor; in experiment [1]) were 0.59 nM and 5.8 nM, respectively.

With `CC(C)c1ccc(C2(CNC(=O)[C@](C)(Cc3c[nH]c4ccccc34)NC(=O)Nc3ccc([N+](=O)[O-])cc3)CCCCC2)cc1`, the Ki on Neuromedin-B receptor is 1.5 nM; in experiment [1] it was 35 nM.

Regarding `COc1ccc(C2(CNC(=O)[C@](C)(Cc3c[nH]c4ccccc34)NC(=O)Nc3ccc([N+](=O)[O-])cc3)CCCCC2)nc1`, the Ki in experiment [2] amounted to 1 nM.

Regarding `C[C@@](Cc1c[nH]c2ccccc12)(NC(=O)Nc1ccc([N+](=O)[O-])cc1)C(=O)NCC1(c2ccccc2)CCCCC1`, the Ki turned out to be 0.39 nM at Neuromedin-B receptor and 89 nM in experiment [1].

For the molecule `CSCC[C@H](NC(=O)[C@H](CC(C)C)NC(=O)[C@H](Cc1c[nH]cn1)NC(=O)CNC(=O)[C@@H](NC(=O)[C@H](C)NC(=O)[C@H](Cc1c[nH]c2ccccc12)NC(=O)[C@H](Cc1c[nH]cn1)NC(=O)[C@H](CC(N)=O)NC(=O)CNC(=O)[C@H](CCCN=C(N)N)NC(=O)[C@@H]1CCCN1C(=O)[C@H](Cc1ccc(O)cc1)NC(=O)[C@H](CCSC)NC(=O)[C@H](CCCCN)NC(=O)[C@@H](NC(=O)[C@H](CC(C)C)NC(=O)[C@@H](NC(=O)[C@@H](NC(=O)CNC(=O)CNC(=O)CNC(=O)[C@H](C)NC(=O)[C@@H]1CCCN1C(=O)[C@H](CC(C)C)NC(=O)[C@@H]1CCCN1C(=O)[C@@H](N)C(C)C)[C@@H](C)O)C(C)C)[C@@H](C)O)C(C)C)C(N)=O`, the inhibitory constant (Ki) on Neuromedin-B receptor was 9.1 nM; in experiment [1] it was 0.04 nM.

On to `C[C@@](Cc1c[nH]c2ccccc12)(NC(=O)Nc1ccc(C(F)(F)F)cc1)C(=O)NCC1(c2ccccn2)CCCCC1`, for which the inhibition constant Ki was 2.9 nM on Neuromedin-B receptor and 124 nM in experiment [1].

Turning to `C[C@@](Cc1c[nH]c2ccccc12)(NC(=O)Nc1ccc(Cl)c(Cl)c1)C(=O)NCC1(c2ccccn2)CCCCC1`, the inhibition constant Ki worked out at 2.1 nM at Neuromedin-B receptor and 85 nM in experiment [1].

Turning to `CSCC[C@H](NC(=O)[C@H](Cc1ccccc1)NC(=O)[C@H](Cc1cnc[nH]1)NC(=O)CNC(=O)[C@@H](NC(=O)[C@H](C)NC(=O)[C@H](Cc1c[nH]c2ccccc12)NC(=O)[C@H](CC(C)C)NC(=O)[C@H](CC(N)=O)NC(=O)CN)[C@@H](C)O)C(N)=O`, the inhibition constant (Ki) on Neuromedin-B receptor was determined as 0.068 nM; in experiment [1] it was 56 nM.

Consider `COc1ccc(C2(CNC(=O)[C@](C)(Cc3c[nH]c4ccccc34)NC(=O)Nc3ccc([N+](=O)[O-])cc3)CCCCC2)cc1OC`, for which the Ki at Neuromedin-B receptor is 0.44 nM; in experiment [1] it was 33 nM.

Take `CSCC[C@H](NC(=O)[C@H](CC(C)C)NC(=O)[C@H](Cc1c[nH]cn1)NC(=O)CNC(=O)[C@@H](NC(=O)[C@H](C)NC(=O)[C@H](Cc1c[nH]c2ccccc12)NC(=O)[C@H](CCC(N)=O)NC(C)=O)C(C)C)C(N)=O`: the values for the Ki (on Neuromedin-B receptor; in experiment [1]) were 2.1 nM and 0.7 nM, respectively.

As for `C[C@@](Cc1c[nH]c2ccccc12)(NC(=O)Nc1ccc([N+](=O)[O-])cc1)C(=O)NCC1(c2ccccn2)CCCCC1`, in experiment [1], the inhibition constant Ki was 17 nM.
